Data set [1] concerns Plasmodium falciparum. The experiment in a line: Antiplasmodial activity against chloroquine-sensitive Plasmodium falciparum 3D7A assessed as assessed as parasitaemia level at 4 days dosage of 500 uM using Hema 3 staining by microscopic analysis. It is filed as functional.
The subject of data set [2] is Plasmodium falciparum. The data set is described as follows: Antiplasmodial activity against chloroquine-sensitive Plasmodium falciparum 3D7A assessed as assessed as parasitaemia level at two days dosage of 500 uM using Hema 3 staining by microscopic analysis. It is filed as functional.
The test system of data set [3] is Plasmodium falciparum. The data set is described as follows: Antiplasmodial activity against chloroquine-resistant Plasmodium falciparum K1 after 48 hrs using Hema 3 staining by microscopic analysis. It is filed as functional, organism-based. As to conditions: K1, 48 h.
In data set [4] the test system is Plasmodium falciparum. The data set is described as follows: Antiplasmodial activity against chloroquine-sensitive Plasmodium falciparum 3D7 after 48 hrs using Hema 3 staining by microscopic analysis. It counts as functional, organism-based. The following applies: 3D7, 48 h.
Data set [5] has as its system Plasmodium falciparum. The experiment in a line: Antiplasmodial activity against chloroquine-sensitive Plasmodium falciparum 3D7A assessed as death of all detectable parasites at 4 days dosage of 50 to 500 uM using Hema 3 staining by microscopic analysis. It counts as functional, organism-based.
Data set [6] has as its system Plasmodium falciparum. The experiment in a line: Antiplasmodial activity against chloroquine-sensitive Plasmodium falciparum 3D7A assessed as parasitaemia level at two days dosage of 5 uM measured on day 2 using Hema 3 staining by microscopic analysis. It is filed as functional.
A short description of data set [7]: Toxicity in human mononuclear leukocytes assessed as decrease in cell health at 5 to 500 uM after 5 days by microscopic analysis. As to conditions: 120 h. It counts as cell-based.
For data set [8], the system named is Plasmodium falciparum. The data set is described as follows: Antiplasmodial activity against chloroquine-sensitive Plasmodium falciparum 3D7A assessed as parasitaemia level at two days dosage of 5 uM measured on day 9 using Hema 3 staining by microscopic analysis. It is filed as functional.
Data set [9] relates to Plasmodium falciparum. The experiment in a line: Antiplasmodial activity against chloroquine-sensitive Plasmodium falciparum 3D7A assessed as death of all detectable parasites at two days dosage of 50 to 500 uM using Hema 3 staining by microscopic analysis. It counts as functional, organism-based.
For data set [10], the system named is Plasmodium falciparum. The data set is described as follows: Antiplasmodial activity against chloroquine-sensitive Plasmodium falciparum 3D7A assessed as undetectable parasitaemia level at 4 days dosage of 5 uM measured on day 3 using Hema 3 staining by microscopic analysis. It counts as functional, organism-based.
Data set [11] concerns Plasmodium falciparum. The experiment in a line: Antiplasmodial activity against chloroquine-sensitive Plasmodium falciparum 3D7A assessed as parasitaemia level at 4 days dosage of 5 uM measured on day 9 using Hema 3 staining by microscopic analysis. It counts as functional.
For data set [12], the system named is Plasmodium falciparum. The experiment in a line: Antiplasmodial activity against chloroquine-sensitive Plasmodium falciparum 3D7A assessed as parasitaemia level at 4 days dosage of 5 uM using Hema 3 staining by microscopic analysis. It counts as functional.
Data set [13] deals with Plasmodium falciparum. The experiment in a line: Antiplasmodial activity against chloroquine-sensitive Plasmodium falciparum 3D7A assessed as death of all detectable parasites at 4 days dosage of 0.5 to 500 uM using Hema 3 staining by microscopic analysis. It is filed as functional, organism-based.
Data set [14] concerns Plasmodium falciparum. The data set is described as follows: Antiplasmodial activity against chloroquine-sensitive Plasmodium falciparum 3D7A assessed as death of all detectable parasites at two days dosage of 0.05 uM using Hema 3 staining by microscopic analysis. It counts as functional, organism-based.
Data set [15] deals with Plasmodium falciparum. The data set is described as follows: Antiplasmodial activity against chloroquine-sensitive Plasmodium falciparum 3D7A assessed as death of all detectable parasites at two days dosage of 0.5 to 500 uM using Hema 3 staining by microscopic analysis. It counts as functional, organism-based.
Data set [16] deals with Plasmodium falciparum. The data set is described as follows: Antiplasmodial activity against chloroquine-sensitive Plasmodium falciparum 3D7A assessed as death of all detectable parasites at 4 days dosage of 0.05 uM using Hema 3 staining by microscopic analysis. It is filed as functional, organism-based.

Data on six compounds can be found in ChEMBL document CHEMBL1806493, “Synthesis and biological activities of 4-N-(anilinyl-n-[oxazolyl])-7-chloroquinolines (n=3' or 4') against Plasmodium falciparum in in vitro models” (Bioorg Med Chem Lett, 2011).

Activity calls are given as the source filed them. The rule behind the calls is not given here.

Broadly, the IC50 is the concentration that inhibits the measured activity by half. The low end stands for greater potency in that assay, the high end for weaker potency in that assay. As to `CC1(C)COC(c2ccc(Nc3ccnc4cc(Cl)ccc34)cc2)=N1`, the Activity with Plasmodium falciparum [1] and in the data set with Plasmodium falciparum [2] was 0% each time. The concentration for half-maximal inhibition (IC50) is over 1000 nM in the data set on Plasmodium falciparum [3] and 308 nM in the data set on Plasmodium falciparum [4].

Regarding `Clc1ccc2c(Nc3ccc(C4=NCCO4)cc3)ccnc2c1`, the result with Plasmodium falciparum [5], with Plasmodium falciparum [9] and in the data set with Plasmodium falciparum [10] was Active. For the same compound, the Activity with Plasmodium falciparum [6] is 0.25%; in data set [7], “Toxic”; in the data set on Plasmodium falciparum [8], 5%. For the same compound, the IC50 in the data set on Plasmodium falciparum [3] came to 846 nM; with Plasmodium falciparum [4], 192 nM.

On to `CC1(C)COC(c2cccc(Nc3ccnc4cc(Cl)ccc34)c2)=N1`, for which the outcome in the data set with Plasmodium falciparum [5] and with Plasmodium falciparum [9] was Active. Besides, in data set [7], the Activity entry was “Toxic”. The IC50 with Plasmodium falciparum [3] worked out at 711 nM; with Plasmodium falciparum [4] it was 83 nM.

With `Clc1ccc2c(Nc3cccc(C4=NCCO4)c3)ccnc2c1`, the values for the Activity (with Plasmodium falciparum [11]; in the data set with Plasmodium falciparum [12]; in [7]) were 5%, 0% and “Toxic”, respectively. Further, the outcome with Plasmodium falciparum [5] and with Plasmodium falciparum [9] was Active. Further, the IC50 with Plasmodium falciparum [3] amounted to 895 nM; in the data set with Plasmodium falciparum [4], 91 nM.

Take `O=C1C(O)=C([C@H]2CC[C@H](c3ccc(Cl)cc3)CC2)C(=O)c2ccccc21` [ATOVAQUONE]: in the data set on Plasmodium falciparum [3], the half-maximal inhibitory concentration (IC50) came to 17.7 nM. This counts as double-digit nanomolar.

In the case of `CCN(CC)CCCC(C)Nc1ccnc2cc(Cl)ccc12` (stereo not given) [CHLOROQUINE], the outcome in the data set on Plasmodium falciparum [13] and in the data set on Plasmodium falciparum [15] was Active. For the same compound, in data set [7], the Activity entry was “Toxic”. In addition, the result with Plasmodium falciparum [14] and with Plasmodium falciparum [16] was inactive.
